Data as given in PubChem BioAssay (NCI).
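Results reflect a 48-hour exposure of cells in 96-well plates to compound at five concentrations. GI50 marks 50% less growth. The concentration for full growth arrest is given as TGI.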

How the values were obtained:
Test in all cases: inhibition of tumour cell growth, NCI panel, 48 h
[1] = test system: 786-0 renal
[2] = test system: A498 renal
[3] = test system: A549 NSCLC
[4] = test system: ACHN renal
[5] = test system: BT-549 breast
[6] = test system: CAKI-1 renal
[7] = test system: COLO 205 colon
[8] = test system: DU-145 prostate
[9] = test system: EKVX NSCLC
[10] = test system: HCC-2998 colon
[11] = test system: HCT-116 colon
[12] = test system: HCT-15 colon
[13] = test system: HL-60(TB) leukemia
[14] = test system: HOP-62 NSCLC
[15] = test system: HOP-92 NSCLC
[16] = test system: HS 578T breast
[17] = test system: HT29 colon
[18] = test system: IGROV1 ovarian
[19] = test system: K-562 leukemia
[20] = test system: KM12 colon
[21] = test system: LOX IMVI melanoma
[22] = test system: M14 melanoma
[23] = test system: MALME-3M melanoma
[24] = test system: MCF7 breast
[25] = test system: MDA-MB-231 breast
[26] = test system: MDA-MB-435
[27] = test system: MDA-N
[28] = test system: MOLT-4 leukemia
[29] = test system: NCI-H226 lung
[30] = test system: NCI-H23 lung
[31] = test system: NCI-H460 lung
[32] = test system: NCI-H522 lung
[33] = test system: NCI/ADR-RES ovarian
[34] = test system: OVCAR-3 ovarian
[35] = test system: OVCAR-4 ovarian
[36] = test system: OVCAR-5 ovarian
[37] = test system: OVCAR-8 ovarian
[38] = test system: PC-3 prostate
[39] = test system: RPMI-8226 leukemia
[40] = test system: RXF 393 renal
[41] = test system: SF-268 CNS
[42] = test system: SF-295 CNS
[43] = test system: SF-539 CNS
[44] = test system: SK-MEL-2 melanoma
[45] = test system: SK-MEL-28 melanoma
[46] = test system: SK-MEL-5 melanoma
[47] = test system: SK-OV-3 ovarian
[48] = test system: SN12C renal
[49] = test system: SNB-19 CNS
[50] = test system: SNB-75 CNS
[51] = test system: SW-620 colon
[52] = test system: T-47D breast
[53] = test system: TK-10 renal
[54] = test system: U251 CNS
[55] = test system: UACC-257 melanoma
[56] = test system: UACC-62 melanoma
[57] = test system: UO-31 renal
[58] = test system: CCRF-CEM leukemia
[59] = test system: SR leukemia

COc1cc(/C=C2\C[C@H]3[C@@H]4CC=C5C[C@@H](O)CC[C@]5(C)[C@H]4CC[C@]3(C)C2=O)cc(OC)c1OC
TGI [1]: 89.5 µM | TGI [2]: > 100 µM | TGI [3]: > 100 µM | TGI [4]: > 100 µM | TGI [5]: > 100 µM | TGI [6]: > 100 µM | TGI [7]: 54.9 µM | TGI [8]: > 100 µM | TGI [9]: > 100 µM | TGI [10]: 98.1 µM | TGI [11]: 47.3 µM | TGI [12]: > 100 µM | TGI [13]: 2.25 µM | TGI [14]: > 100 µM | TGI [15]: > 100 µM | TGI [16]: > 100 µM | TGI [17]: 47.7 µM | TGI [18]: > 100 µM | TGI [19]: > 100 µM | TGI [20]: > 100 µM | TGI [21]: 53.8 µM | TGI [22]: 81.8 µM | TGI [23]: > 100 µM | TGI [24]: > 100 µM | TGI [25]: 81.1 µM | TGI [26]: > 100 µM | TGI [27]: 87.1 µM | TGI [28]: 68.4 µM | TGI [29]: > 100 µM | TGI [30]: > 100 µM | TGI [31]: > 100 µM | TGI [32]: 67.8 µM | TGI [33]: > 100 µM | TGI [34]: > 100 µM | TGI [35]: 96.6 µM | TGI [36]: > 100 µM | TGI [37]: > 100 µM | TGI [38]: > 100 µM | TGI [39]: 45.4 µM | TGI [40]: 58 µM | TGI [41]: > 100 µM | TGI [42]: 52.7 µM | TGI [43]: > 100 µM | TGI [44]: 65.4 µM | TGI [45]: > 100 µM | TGI [46]: 31.9 µM | TGI [47]: > 100 µM | TGI [48]: > 100 µM | TGI [49]: > 100 µM | TGI [50]: 96.3 µM | TGI [51]: > 100 µM | TGI [52]: 64.2 µM | TGI [53]: > 100 µM | TGI [54]: > 100 µM | TGI [55]: > 100 µM | TGI [56]: > 100 µM | TGI [57]: > 100 µM

CC(=O)OC1CC2c3cccc4c3C(CC2N(C)C1=O)CN4C(=O)c1ccccc1 (configuration not stated)
TGI [1]: 52.2 µM | TGI [2]: 74.6 µM | TGI [3]: 37.2 µM | TGI [4]: 55.5 µM | TGI [5]: 33.1 µM | TGI [6]: 54.8 µM | TGI [58]: > 100 µM | TGI [7]: 56.1 µM | TGI [8]: 42.1 µM | TGI [9]: 83.1 µM | TGI [10]: 43.5 µM | TGI [11]: 32.8 µM | TGI [12]: 46.2 µM | TGI [13]: 44 µM | TGI [14]: 77.4 µM | TGI [15]: 34.8 µM | TGI [17]: 49.9 µM | TGI [18]: 43.8 µM | TGI [19]: > 100 µM | TGI [20]: 55.8 µM | TGI [21]: 25.3 µM | TGI [22]: 55.8 µM | TGI [24]: 62.9 µM | TGI [25]: 52.4 µM | TGI [26]: 52.6 µM | TGI [27]: 77.1 µM | TGI [28]: > 100 µM | TGI [29]: 96.5 µM | TGI [30]: 55.4 µM | TGI [32]: 34.4 µM | TGI [33]: 45.1 µM | TGI [34]: 30.1 µM | TGI [35]: 92.3 µM | TGI [36]: > 100 µM | TGI [37]: 48.8 µM | TGI [38]: 79.6 µM | TGI [39]: > 100 µM | TGI [41]: > 100 µM | TGI [42]: 69.5 µM | TGI [43]: 93.9 µM | TGI [44]: 64.9 µM | TGI [45]: 77.1 µM | TGI [46]: 29.1 µM | TGI [47]: 80.4 µM | TGI [48]: 56.8 µM | TGI [49]: > 100 µM | TGI [59]: 94.8 µM | TGI [51]: > 100 µM | TGI [52]: > 100 µM | TGI [53]: > 100 µM | TGI [54]: 53.3 µM | TGI [55]: 49.9 µM | TGI [56]: 50.3 µM | TGI [57]: 42.1 µM

COc1cc2c(cc1OC)C13CCN4CC5=CCOC6CC(=O)N2C1C6C5CC43O (configuration not stated)
TGI [1]: > 100 µM | TGI [2]: > 100 µM | TGI [3]: > 100 µM | TGI [4]: > 100 µM | TGI [5]: > 100 µM | TGI [6]: > 100 µM | TGI [58]: > 100 µM | TGI [7]: > 100 µM | TGI [8]: > 100 µM | TGI [9]: > 100 µM | TGI [10]: > 100 µM | TGI [11]: > 100 µM | TGI [12]: > 100 µM | TGI [13]: > 100 µM | TGI [15]: > 100 µM | TGI [16]: > 100 µM | TGI [17]: > 100 µM | TGI [18]: > 100 µM | TGI [19]: > 100 µM | TGI [20]: > 100 µM | TGI [21]: > 100 µM | TGI [22]: > 100 µM | TGI [23]: > 100 µM | TGI [24]: > 100 µM | TGI [25]: > 100 µM | TGI [26]: > 100 µM | TGI [27]: > 100 µM | TGI [28]: > 100 µM | TGI [29]: > 100 µM | TGI [30]: > 100 µM | TGI [31]: > 100 µM | TGI [32]: > 100 µM | TGI [33]: > 100 µM | TGI [34]: > 100 µM | TGI [35]: > 100 µM | TGI [36]: > 100 µM | TGI [37]: > 100 µM | TGI [38]: > 100 µM | TGI [39]: > 100 µM | TGI [41]: > 100 µM | TGI [42]: > 100 µM | TGI [43]: > 100 µM | TGI [44]: > 100 µM | TGI [45]: > 100 µM | TGI [46]: > 100 µM | TGI [47]: > 100 µM | TGI [48]: > 100 µM | TGI [49]: > 100 µM | TGI [50]: > 100 µM | TGI [51]: > 100 µM | TGI [52]: > 100 µM | TGI [53]: > 100 µM | TGI [54]: > 100 µM | TGI [55]: > 100 µM | TGI [56]: > 100 µM | TGI [57]: > 100 µM

NS(=O)(=O)c1ccc(-n2c(-c3cccs3)nc3ccc(I)cc3c2=O)cc1
TGI [1]: 77.8 µM | TGI [3]: 41.5 µM | TGI [4]: 53.8 µM | TGI [5]: 37.9 µM | TGI [6]: 36.6 µM | GI50 [58]: 41.2 µM | TGI [58]: > 100 µM | TGI [7]: 40.3 µM | TGI [8]: 35.9 µM | TGI [9]: 54.3 µM | TGI [10]: 39.9 µM | TGI [11]: 31 µM | TGI [12]: 50.9 µM | TGI [13]: 64.4 µM | TGI [14]: 84.2 µM | TGI [15]: 54.1 µM | TGI [17]: 94.1 µM | TGI [18]: 56 µM | GI50 [19]: 37.2 µM | TGI [19]: > 100 µM | TGI [20]: 59.3 µM | TGI [21]: 37 µM | TGI [22]: 56 µM | TGI [23]: 43.2 µM | TGI [24]: 65.4 µM | TGI [26]: 42.4 µM | TGI [27]: > 100 µM | TGI [28]: > 100 µM | TGI [29]: 87.3 µM | TGI [30]: 51.1 µM | TGI [31]: 83 µM | TGI [32]: 39.1 µM | TGI [33]: 86.3 µM | TGI [34]: 35.1 µM | TGI [35]: 86.3 µM | TGI [36]: 59.9 µM | TGI [37]: > 100 µM | TGI [38]: 81.9 µM | GI50 [39]: 25.3 µM | TGI [39]: 62.1 µM | TGI [40]: 88.9 µM | TGI [41]: 86.8 µM | TGI [42]: 75.8 µM | GI50 [44]: 21.8 µM | TGI [44]: 47.6 µM | TGI [45]: 55.5 µM | TGI [46]: 47.1 µM | TGI [47]: 53.7 µM | TGI [48]: 98.9 µM | TGI [49]: 70.6 µM | TGI [50]: 87.4 µM | TGI [59]: > 100 µM | TGI [51]: > 100 µM | GI50 [52]: 19.2 µM | TGI [52]: 43.5 µM | TGI [53]: 50.8 µM | TGI [54]: 48.8 µM | TGI [55]: 19.3 µM | TGI [56]: 46.2 µM | TGI [57]: 42.6 µM
